The record followed here is PubChem BioAssay (NCI).

SMILES strings stand for the structures.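 96-well plates; 48 h exposure; 5 concentrations. Endpoints by linear interpolation between flanking doses. Not reached: highest tested concentration assigned. TGI: total growth inhibition.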

Among the test systems are DLD-1 colon; DMS 114 small cell lung; DMS 273 small cell lung; KM20L2 colon; LXFL 529 NSCLC; M19-MEL melanoma; SNB-78 CNS; XF 498 CNS; HOP-18 NSCLC; RXF-631 renal; P388 leukemia; P388/ADR leukemia; SN12K1 renal.
Test in all cases: NCI tumour cell line growth inhibition, 48 h

Turning to `Cc1ccc([N+]2=NC(c3ccc([N+](=O)[O-])cc3)=NN(c3ccccc3)C2)cc1`, the TGI in the experiment with DLD-1 colon, with DMS 114 small cell lung, in the experiment on DMS 273 small cell lung, in the experiment on KM20L2 colon, in the experiment with LXFL 529 NSCLC and with M19-MEL melanoma was > 100 µM in each case. For the same molecule, the TGI with SNB-78 CNS and in the experiment with XF 498 CNS was > 100 µM in each case.

Turning to `CCOc1ccc(NC(=O)/C(Cc2nc3ccccc3[nH]c2=O)=N\O)cc1`, the TGI with DLD-1 colon, in the experiment on DMS 114 small cell lung, in the experiment with DMS 273 small cell lung, in the experiment on KM20L2 colon, with LXFL 529 NSCLC and in the experiment with M19-MEL melanoma was > 100 µM each time. In addition, the TGI in the experiment with SNB-78 CNS was > 100 µM.

As to `SCc1ccc(-c2ccc(CS)cc2)cc1`, the TGI is 34.1 µM in the experiment on DLD-1 colon; 25.6 µM in the experiment on DMS 114 small cell lung; 58.4 µM in the experiment with DMS 273 small cell lung; 30.9 µM in the experiment with HOP-18 NSCLC; 53 µM with KM20L2 colon; 28.7 µM in the experiment on LXFL 529 NSCLC. The TGI in the experiment with M19-MEL melanoma came to 35.7 µM; in the experiment with SNB-78 CNS, 51 µM; in the experiment on XF 498 CNS, 36.6 µM.

For `CC(=O)OC1COC(n2c(O)c(N=Nc3ccc([N+](=O)[O-])cc3)c3cc(Br)c([N+](=O)[O-])cc32)C(OC(C)=O)C1OC(C)=O` (configuration not stated), the TGI in the experiment with DLD-1 colon, with DMS 273 small cell lung, in the experiment with HOP-18 NSCLC, in the experiment on KM20L2 colon, with LXFL 529 NSCLC and in the experiment with M19-MEL melanoma was > 100 µM throughout. For the same molecule, the TGI was > 100 µM with RXF-631 renal, 75.8 µM in the experiment with SNB-78 CNS and > 100 µM in the experiment with XF 498 CNS.

Regarding `O=C1C[C@@H]2[C@@H](C=CC23CC3)N1O`, the TGI in the experiment with DLD-1 colon, in the experiment with DMS 273 small cell lung, in the experiment with HOP-18 NSCLC, with KM20L2 colon, in the experiment on LXFL 529 NSCLC and in the experiment with M19-MEL melanoma was > 100 µM each time. Further, in the experiment on SNB-78 CNS, the TGI was > 100 µM.

For the molecule `COc1cc(C(=O)O)cc2c1[nH]c1ccccc12`, the TGI with DLD-1 colon, in the experiment with DMS 114 small cell lung, in the experiment with DMS 273 small cell lung, in the experiment on KM20L2 colon, in the experiment with LXFL 529 NSCLC and in the experiment on M19-MEL melanoma was > 25 µM in each case. Besides, the TGI with SNB-78 CNS was > 25 µM.

Take `CN(C)CCNC(=O)c1ccccc1Nc1c(Cl)cccc1Cl`: the TGI was 37.1 µM in the experiment on DLD-1 colon; 30.5 µM in the experiment on DMS 273 small cell lung; 23.4 µM in the experiment on KM20L2 colon; 32.4 µM with LXFL 529 NSCLC; 24.5 µM in the experiment with M19-MEL melanoma; 33.8 µM in the experiment on SNB-78 CNS. In addition, in the experiment on XF 498 CNS, the TGI came to 22 µM.

Regarding `ClCCN(CC#CCCCC#CCN(CCCl)CCCl)CCCl`, the TGI with DLD-1 colon is 35.7 µM; in the experiment with DMS 114 small cell lung, 15.8 µM; in the experiment on DMS 273 small cell lung it was 16.6 µM; in the experiment with HOP-18 NSCLC it was 44.5 µM; with KM20L2 colon it was 27.7 µM; in the experiment on LXFL 529 NSCLC, 28.3 µM. For the same molecule, the TGI with M19-MEL melanoma turned out to be 29.5 µM; in the experiment on P388 leukemia it was 9.73 µM; in the experiment on P388/ADR leukemia it was 9.09 µM; in the experiment on RXF-631 renal, 23.8 µM; with SN12K1 renal, 25.3 µM; in the experiment on SNB-78 CNS, 57.5 µM.

In the case of `CC1(OCc2ccccc2)C(=O)N2C1N(C(=O)OCc1ccccc1)CC2(C)C` (configuration not stated), the TGI in the experiment with DLD-1 colon, in the experiment with DMS 114 small cell lung, in the experiment on DMS 273 small cell lung, in the experiment on KM20L2 colon, in the experiment on LXFL 529 NSCLC and in the experiment on M19-MEL melanoma was > 100 µM in each case. Moreover, in the experiment with XF 498 CNS, the TGI turned out to be 75 µM.

Take `CC(C)NC1CCCCC2c3cc(F)ccc3[C@]12O` (some centres not stated): the TGI with DLD-1 colon, in the experiment on DMS 114 small cell lung, in the experiment on DMS 273 small cell lung, in the experiment with HOP-18 NSCLC, in the experiment on KM20L2 colon and in the experiment on LXFL 529 NSCLC was > 100 µM throughout. Besides, the TGI with M19-MEL melanoma and in the experiment on SNB-78 CNS was > 100 µM in each case.

With `Cc1cc(N(CCC#N)CCC#N)ccc1/C=C(\NC(=O)/C=C/c1ccccc1)NC(=O)Nc1ccccc1C`, the TGI in the experiment with DLD-1 colon, with DMS 114 small cell lung, in the experiment with DMS 273 small cell lung, in the experiment with KM20L2 colon, in the experiment with LXFL 529 NSCLC and in the experiment on M19-MEL melanoma was > 100 µM each time. Moreover, the TGI with RXF-631 renal and with SNB-78 CNS was > 100 µM in each case.

On to `COc1ccc2c(c1)CC[C@@H]1C2CC[C@]2(C)C(=N\O)/C(=N/O)CC12` (some centres not stated), for which the TGI in the experiment with DLD-1 colon was found to be 36.6 µM; with DMS 273 small cell lung, 26.7 µM; in the experiment on HOP-18 NSCLC, 30.4 µM; with KM20L2 colon it was 18.5 µM; in the experiment on LXFL 529 NSCLC, 26.8 µM; in the experiment with M19-MEL melanoma, 37 µM. Also, the results for the TGI with SNB-78 CNS and with XF 498 CNS were 47.5 µM and 29.6 µM, respectively.

As for `CC(=O)CC(=O)ON(C)C(C)=O`, the TGI in the experiment on DLD-1 colon, with DMS 114 small cell lung, in the experiment on DMS 273 small cell lung, with KM20L2 colon, in the experiment on LXFL 529 NSCLC and in the experiment with M19-MEL melanoma was > 100 µM each time. Also, the TGI with SNB-78 CNS and with XF 498 CNS was > 100 µM each time.

With `CC(/C=C/c1ccccc1)=N\N=C(C)\C=C\c1ccccc1`, the TGI with DLD-1 colon, in the experiment with DMS 273 small cell lung, with KM20L2 colon, in the experiment on LXFL 529 NSCLC, in the experiment on M19-MEL melanoma and in the experiment with SNB-78 CNS was > 100 µM throughout. Moreover, the TGI with XF 498 CNS is > 100 µM.
